According to ChEMBL document CHEMBL5465560, “Selectivity Literature for EUbOPEN Chemogenomic Library” (2024):
One block for each compound: values may come before it.

How the values were obtained:
[1] = molecular target: T1, Tyrosine-protein kinase JAK3 (Homo sapiens) (UniProt P52333); conditions: at 10 µM
T1 sequence (whole entry): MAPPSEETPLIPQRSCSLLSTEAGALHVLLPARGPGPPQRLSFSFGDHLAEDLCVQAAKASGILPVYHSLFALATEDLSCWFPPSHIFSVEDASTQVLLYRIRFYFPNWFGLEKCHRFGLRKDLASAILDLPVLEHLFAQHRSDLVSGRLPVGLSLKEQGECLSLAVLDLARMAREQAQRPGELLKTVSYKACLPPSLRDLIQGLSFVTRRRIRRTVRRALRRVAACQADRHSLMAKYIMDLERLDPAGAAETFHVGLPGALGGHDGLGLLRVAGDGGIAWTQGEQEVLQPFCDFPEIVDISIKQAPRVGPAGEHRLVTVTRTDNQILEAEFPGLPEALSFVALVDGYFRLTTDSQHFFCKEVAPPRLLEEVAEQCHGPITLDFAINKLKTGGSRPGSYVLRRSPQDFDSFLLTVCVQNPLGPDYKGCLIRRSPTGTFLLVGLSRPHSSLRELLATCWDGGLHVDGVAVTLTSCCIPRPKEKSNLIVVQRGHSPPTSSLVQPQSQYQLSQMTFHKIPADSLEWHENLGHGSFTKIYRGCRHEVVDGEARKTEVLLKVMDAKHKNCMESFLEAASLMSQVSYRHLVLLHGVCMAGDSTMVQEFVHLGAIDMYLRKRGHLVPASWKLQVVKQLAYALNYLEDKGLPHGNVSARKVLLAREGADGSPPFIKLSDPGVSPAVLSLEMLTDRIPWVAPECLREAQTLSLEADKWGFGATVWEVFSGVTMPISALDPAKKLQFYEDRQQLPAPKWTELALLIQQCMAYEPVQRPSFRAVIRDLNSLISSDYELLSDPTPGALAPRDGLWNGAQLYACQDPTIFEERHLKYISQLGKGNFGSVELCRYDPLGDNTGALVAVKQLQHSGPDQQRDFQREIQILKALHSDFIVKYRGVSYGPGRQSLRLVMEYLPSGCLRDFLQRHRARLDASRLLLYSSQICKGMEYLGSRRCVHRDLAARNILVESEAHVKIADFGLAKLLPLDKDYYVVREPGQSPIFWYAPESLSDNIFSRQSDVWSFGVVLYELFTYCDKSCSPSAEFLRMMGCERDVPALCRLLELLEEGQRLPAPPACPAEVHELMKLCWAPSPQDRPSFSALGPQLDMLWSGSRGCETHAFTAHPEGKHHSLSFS

[2] = molecular target: Histone-lysine N-methyltransferase SETD2 (Homo sapiens) (UniProt Q9BYW2); test: Selectivity interaction (Methyltransferase screen (radiometric assays, panel of 8 PRMTs, 21 protein lysine methyltransferases, 3 DNA methyltransferases, and one RNA methyltransferase)) EUB0000272b SETD2
[3] = molecular target: T2, Serine/threonine-protein kinase TAO1 (Homo sapiens) (UniProt Q7L7X3); test: Selectivity interaction (KinomeScan (DiscoverX)) EUB0001079a TAOK1; conditions: at 1 µM
T2 sequence (whole entry): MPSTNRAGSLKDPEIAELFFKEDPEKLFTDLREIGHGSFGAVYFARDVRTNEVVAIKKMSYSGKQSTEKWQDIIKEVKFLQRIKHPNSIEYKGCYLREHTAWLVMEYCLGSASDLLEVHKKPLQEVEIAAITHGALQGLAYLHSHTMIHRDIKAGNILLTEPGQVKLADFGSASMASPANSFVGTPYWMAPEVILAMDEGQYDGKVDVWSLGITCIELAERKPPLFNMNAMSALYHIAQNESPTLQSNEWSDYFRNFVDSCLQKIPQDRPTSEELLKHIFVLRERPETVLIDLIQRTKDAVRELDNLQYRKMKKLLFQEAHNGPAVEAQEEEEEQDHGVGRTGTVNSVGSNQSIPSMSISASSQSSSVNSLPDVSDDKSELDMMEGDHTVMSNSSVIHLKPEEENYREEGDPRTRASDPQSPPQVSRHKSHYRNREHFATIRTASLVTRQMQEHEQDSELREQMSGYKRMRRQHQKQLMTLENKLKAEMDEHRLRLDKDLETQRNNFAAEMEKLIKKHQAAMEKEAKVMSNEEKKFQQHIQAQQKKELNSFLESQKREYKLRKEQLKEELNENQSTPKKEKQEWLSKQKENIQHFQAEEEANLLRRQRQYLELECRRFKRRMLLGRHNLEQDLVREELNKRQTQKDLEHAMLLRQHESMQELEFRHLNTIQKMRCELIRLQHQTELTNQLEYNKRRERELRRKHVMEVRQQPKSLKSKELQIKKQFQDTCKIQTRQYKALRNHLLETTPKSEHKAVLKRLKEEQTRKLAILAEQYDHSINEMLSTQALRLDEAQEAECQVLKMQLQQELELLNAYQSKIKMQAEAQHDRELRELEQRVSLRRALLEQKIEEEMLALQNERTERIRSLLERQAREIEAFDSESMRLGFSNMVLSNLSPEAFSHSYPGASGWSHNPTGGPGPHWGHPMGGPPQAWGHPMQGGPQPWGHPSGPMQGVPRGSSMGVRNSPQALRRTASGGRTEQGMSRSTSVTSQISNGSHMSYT

[4] = molecular target: Death-associated protein kinase 1 (Homo sapiens, UniProt P53355); test: Selectivity interaction (KinomeScan (DiscoverX)) EUB0000045b DAPK1
[5] = molecular target: Serine/threonine-protein kinase OSR1 (Homo sapiens) (UniProt O95747); test: Selectivity interaction (Kinase panel (KiNativ target engagement assay in Jurkat cells)) EUB0001635a OXSR1; format: cell-based; conditions: Selectivity number of off-targets 0.0, Selectivity number of targets 233.0, Source Knowledge https://www.sciencedirect.com/science/article/pii/S2451945619300674?via%3Dihub, at 1 µM
[6] = molecular target: MAP/microtubule affinity-regulating kinase 3 (Homo sapiens) (UniProt P27448); test: Selectivity interaction (ActivX KiNativ screen (kinase selectivity in THP-1 cell lysates)) EUB0000639a MARK3; format: subcellular; conditions: lysate, at 5 µM
Chain of MAP/microtubule affinity-regulating kinase 3 (Homo sapiens) (P27448 whole entry, looked up): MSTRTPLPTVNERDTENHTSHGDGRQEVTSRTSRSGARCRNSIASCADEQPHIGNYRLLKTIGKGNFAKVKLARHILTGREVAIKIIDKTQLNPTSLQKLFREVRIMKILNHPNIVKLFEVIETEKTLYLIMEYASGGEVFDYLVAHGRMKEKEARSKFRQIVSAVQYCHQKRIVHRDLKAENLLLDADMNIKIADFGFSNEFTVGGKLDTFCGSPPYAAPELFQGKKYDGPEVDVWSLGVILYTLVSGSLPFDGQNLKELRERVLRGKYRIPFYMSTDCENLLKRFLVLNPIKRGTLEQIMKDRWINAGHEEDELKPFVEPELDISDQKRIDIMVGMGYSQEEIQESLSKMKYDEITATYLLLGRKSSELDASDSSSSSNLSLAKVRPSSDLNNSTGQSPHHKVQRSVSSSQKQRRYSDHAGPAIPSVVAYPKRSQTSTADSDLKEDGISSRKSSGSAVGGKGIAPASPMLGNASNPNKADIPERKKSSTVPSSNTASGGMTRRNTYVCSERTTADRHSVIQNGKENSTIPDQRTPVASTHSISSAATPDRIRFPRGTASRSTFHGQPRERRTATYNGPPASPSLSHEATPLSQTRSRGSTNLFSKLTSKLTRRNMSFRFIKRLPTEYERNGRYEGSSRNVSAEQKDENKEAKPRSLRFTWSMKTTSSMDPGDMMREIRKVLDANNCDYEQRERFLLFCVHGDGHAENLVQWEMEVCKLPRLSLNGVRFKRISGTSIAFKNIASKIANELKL

Chain of Death-associated protein kinase 1 (P53355 whole entry, looked up): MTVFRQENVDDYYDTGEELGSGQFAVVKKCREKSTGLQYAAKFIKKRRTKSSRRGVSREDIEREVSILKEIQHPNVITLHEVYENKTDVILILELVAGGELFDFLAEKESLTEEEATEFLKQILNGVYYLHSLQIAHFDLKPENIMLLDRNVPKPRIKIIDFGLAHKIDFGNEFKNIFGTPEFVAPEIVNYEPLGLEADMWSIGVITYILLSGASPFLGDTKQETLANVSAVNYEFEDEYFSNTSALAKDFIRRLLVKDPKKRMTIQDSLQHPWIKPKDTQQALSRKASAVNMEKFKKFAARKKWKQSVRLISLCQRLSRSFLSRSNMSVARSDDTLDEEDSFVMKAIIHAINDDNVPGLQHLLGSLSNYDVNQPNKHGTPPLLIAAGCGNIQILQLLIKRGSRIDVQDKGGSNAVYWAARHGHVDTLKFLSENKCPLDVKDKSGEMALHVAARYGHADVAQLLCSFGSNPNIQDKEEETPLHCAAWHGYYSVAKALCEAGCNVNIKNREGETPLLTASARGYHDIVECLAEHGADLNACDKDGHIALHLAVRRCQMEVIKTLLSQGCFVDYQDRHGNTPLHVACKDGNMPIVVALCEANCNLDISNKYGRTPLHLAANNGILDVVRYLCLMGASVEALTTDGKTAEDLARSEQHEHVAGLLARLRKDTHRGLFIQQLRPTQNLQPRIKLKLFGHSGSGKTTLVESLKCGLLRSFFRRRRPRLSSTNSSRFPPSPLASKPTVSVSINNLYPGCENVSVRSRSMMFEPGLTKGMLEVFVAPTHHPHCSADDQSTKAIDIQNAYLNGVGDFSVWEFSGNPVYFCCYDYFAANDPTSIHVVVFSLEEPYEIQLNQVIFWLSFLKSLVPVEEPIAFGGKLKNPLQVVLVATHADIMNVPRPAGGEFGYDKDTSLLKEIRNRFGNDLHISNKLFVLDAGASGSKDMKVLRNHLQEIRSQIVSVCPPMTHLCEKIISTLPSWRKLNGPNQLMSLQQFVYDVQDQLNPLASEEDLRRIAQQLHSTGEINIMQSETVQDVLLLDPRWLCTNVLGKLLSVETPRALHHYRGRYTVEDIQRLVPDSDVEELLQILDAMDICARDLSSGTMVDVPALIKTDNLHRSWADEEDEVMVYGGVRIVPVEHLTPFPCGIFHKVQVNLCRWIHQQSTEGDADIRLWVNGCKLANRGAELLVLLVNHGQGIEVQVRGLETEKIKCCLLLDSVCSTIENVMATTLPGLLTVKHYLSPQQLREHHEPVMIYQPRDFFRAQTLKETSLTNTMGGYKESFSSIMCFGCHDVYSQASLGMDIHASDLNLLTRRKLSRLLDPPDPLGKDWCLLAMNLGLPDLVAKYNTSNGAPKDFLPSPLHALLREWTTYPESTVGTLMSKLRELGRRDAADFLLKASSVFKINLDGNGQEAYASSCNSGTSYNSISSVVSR
Chain of Histone-lysine N-methyltransferase SETD2 (Homo sapiens) (Q9BYW2 whole entry): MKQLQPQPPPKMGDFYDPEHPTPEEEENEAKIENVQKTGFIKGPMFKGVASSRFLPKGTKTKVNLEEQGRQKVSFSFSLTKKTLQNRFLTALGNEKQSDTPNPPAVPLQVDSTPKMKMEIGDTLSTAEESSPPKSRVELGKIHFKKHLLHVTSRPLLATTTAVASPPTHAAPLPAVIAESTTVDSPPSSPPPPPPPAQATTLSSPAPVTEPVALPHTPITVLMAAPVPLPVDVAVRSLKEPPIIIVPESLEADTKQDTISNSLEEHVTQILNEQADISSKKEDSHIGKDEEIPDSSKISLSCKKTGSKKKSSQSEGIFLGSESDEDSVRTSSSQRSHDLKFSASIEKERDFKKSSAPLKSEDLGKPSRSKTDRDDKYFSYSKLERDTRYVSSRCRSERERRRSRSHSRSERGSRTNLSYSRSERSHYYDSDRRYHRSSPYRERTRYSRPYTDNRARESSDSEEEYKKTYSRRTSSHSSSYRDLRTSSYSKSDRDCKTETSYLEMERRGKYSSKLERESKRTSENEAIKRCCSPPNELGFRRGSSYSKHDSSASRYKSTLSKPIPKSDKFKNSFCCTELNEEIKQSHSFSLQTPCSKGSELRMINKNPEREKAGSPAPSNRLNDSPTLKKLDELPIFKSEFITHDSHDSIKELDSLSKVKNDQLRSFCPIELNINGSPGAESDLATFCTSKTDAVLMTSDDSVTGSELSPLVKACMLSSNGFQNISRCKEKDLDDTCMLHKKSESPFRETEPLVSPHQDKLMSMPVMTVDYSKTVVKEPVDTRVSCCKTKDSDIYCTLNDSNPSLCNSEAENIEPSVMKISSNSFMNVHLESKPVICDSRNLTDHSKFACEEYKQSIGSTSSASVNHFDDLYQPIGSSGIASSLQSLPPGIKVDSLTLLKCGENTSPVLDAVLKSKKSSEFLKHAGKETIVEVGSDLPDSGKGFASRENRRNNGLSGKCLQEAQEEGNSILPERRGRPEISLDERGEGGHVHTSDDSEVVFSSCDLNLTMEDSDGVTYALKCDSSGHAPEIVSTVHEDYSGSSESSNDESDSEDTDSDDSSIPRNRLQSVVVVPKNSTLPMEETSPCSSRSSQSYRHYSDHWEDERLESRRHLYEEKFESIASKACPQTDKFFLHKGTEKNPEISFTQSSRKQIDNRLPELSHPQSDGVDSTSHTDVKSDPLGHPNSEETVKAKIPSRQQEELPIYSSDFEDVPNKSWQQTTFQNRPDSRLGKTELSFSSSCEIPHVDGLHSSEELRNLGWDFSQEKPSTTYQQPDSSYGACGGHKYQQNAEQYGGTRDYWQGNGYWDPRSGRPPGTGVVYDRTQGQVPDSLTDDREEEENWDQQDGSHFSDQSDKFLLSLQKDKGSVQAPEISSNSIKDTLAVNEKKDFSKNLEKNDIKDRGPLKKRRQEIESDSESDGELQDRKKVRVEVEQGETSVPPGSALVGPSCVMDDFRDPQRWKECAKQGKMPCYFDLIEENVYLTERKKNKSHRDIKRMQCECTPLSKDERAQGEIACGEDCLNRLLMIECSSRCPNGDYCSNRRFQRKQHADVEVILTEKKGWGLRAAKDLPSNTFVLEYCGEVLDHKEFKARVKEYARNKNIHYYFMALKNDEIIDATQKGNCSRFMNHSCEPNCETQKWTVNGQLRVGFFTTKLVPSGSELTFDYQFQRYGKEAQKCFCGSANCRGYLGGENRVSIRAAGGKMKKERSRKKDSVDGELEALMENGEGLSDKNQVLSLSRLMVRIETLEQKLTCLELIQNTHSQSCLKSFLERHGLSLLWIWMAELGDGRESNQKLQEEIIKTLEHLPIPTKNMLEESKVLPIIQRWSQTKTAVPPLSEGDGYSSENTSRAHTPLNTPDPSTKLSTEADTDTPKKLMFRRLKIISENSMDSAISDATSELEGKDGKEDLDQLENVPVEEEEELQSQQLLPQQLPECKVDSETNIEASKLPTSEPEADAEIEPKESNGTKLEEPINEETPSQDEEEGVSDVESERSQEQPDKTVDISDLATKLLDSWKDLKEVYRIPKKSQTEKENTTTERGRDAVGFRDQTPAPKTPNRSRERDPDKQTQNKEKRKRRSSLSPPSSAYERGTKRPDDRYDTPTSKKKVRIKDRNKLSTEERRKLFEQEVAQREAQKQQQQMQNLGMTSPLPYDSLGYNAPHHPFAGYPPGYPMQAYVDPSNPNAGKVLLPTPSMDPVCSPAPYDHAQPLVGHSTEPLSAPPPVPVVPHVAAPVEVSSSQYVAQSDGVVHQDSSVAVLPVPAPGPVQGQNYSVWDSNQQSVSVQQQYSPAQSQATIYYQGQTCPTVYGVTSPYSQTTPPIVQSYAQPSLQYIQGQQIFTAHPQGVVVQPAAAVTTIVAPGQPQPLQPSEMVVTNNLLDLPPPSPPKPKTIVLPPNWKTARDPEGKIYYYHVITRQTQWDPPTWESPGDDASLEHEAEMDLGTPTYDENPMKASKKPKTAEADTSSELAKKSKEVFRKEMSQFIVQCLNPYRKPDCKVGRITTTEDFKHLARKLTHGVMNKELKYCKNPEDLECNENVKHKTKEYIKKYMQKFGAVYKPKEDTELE

Compound: Nc1cnc(N2CCc3cc(S(=O)(=O)Nc4c(F)cc(Cl)cc4F)cc(N4CCCC4=O)c32)nc1 [TP-020n]
% of control [3]: 80%

Compound: C=CC(=O)Nc1cc(-n2c(=O)ccc3cnc4ccc(-c5ccc(NS(C)(=O)=O)cc5)cc4c32)ccc1C
% of control ([4]; at 1 µM): 96%
% of control ([4]; at 10 µM): 61%

Compound: C=CC(=O)Nc1ccc(C(=O)Nc2[nH]nc3c2CN(C(=O)N[C@H](CN(C)C)c2ccccc2)C3(C)C)cc1
% of engagement [5]: 2.6%

Compound: CC[C@@H]1[C@H](F)C(=O)N[C@@H]1COc1nccc2cc(C(N)=O)c(OC)cc12 [ZIMLOVISERTIB]
% of inhibition [6]: 45.6%

Now from value to compound:

% of control [1]: 100%
Compound: CCN(CC)CCCCNc1ncc2cc(-c3cc(OC)cc(OC)c3)c(NC(=O)NC(C)(C)C)nc2n1

% of activity ([2]; at 1 µM): 98%
% of activity ([2]; at 10 µM): 98.3%
Compound: Cc1cc(C)cc([C@H]2c3cc(C)ccc3NC(=O)CN2C(=O)c2ccc(Br)s2)c1
